This passage reports IC50 results from ChEMBL document CHEMBL3352798, “Cytotoxic vobasine, tacaman, and corynanthe-tryptamine bisindole alkaloids from Tabernaemontana and structure revision of tronoharine” (J Nat Prod, 2014).

What all share (format): functional, cell-based
Assay [1] is described as follows: Cytotoxicity against vincristine-resistant human KB/VJ300 cells in presence of vincristine.
Assay [2] can be described thus: Cytotoxicity against vincristine-resistant human KB/VJ300 cells.
In the next assay the test system is KB. The experiment in a line: Cytotoxicity against vincristine-sensitive human KB cells.

Values after ≈ are worked out from the molar mass of the structure shown. Where only a bound is given, the exact number is not on record here.

A word on the IC50: it is the concentration at which inhibition is half-maximal. In the case of `CC[C@@H]1CN(C)[C@H]2Cc3c([nH]c4ccccc34)C(=O)C[C@H]1[C@H]2C(=O)OC`, the IC50 in assay [1] was 9.4 µg/mL; in assay [2], above 25 µg/mL; in the assay with KB, 5.5 µg/mL (≈ 15.5 µM).
In the same order, the values of `COC(=O)[C@@H]1[C@@H]2Cc3c([nH]c4ccccc34)C(=O)C[C@@H]1[C@@]1(CN2C)O[C@H]1C` are above 25 µg/mL, above 25 µg/mL and 5.7 µg/mL (≈ 15.5 µM).
For the molecule `CCC1=CN(C)[C@H]2Cc3c([nH]c4ccccc34)C(=O)C[C@H]1[C@@H]2C(=O)OC`, the IC50 in assay [1] was above 25 µg/mL; in assay [2], above 25 µg/mL; in the assay on KB, 18.9 µg/mL (≈ 53.6 µM).
Take `COC(=O)[C@H]1[C@@H]2CC(=O)c3[nH]c4ccccc4c3C[C@@H]1N(C)C=C2C(C)=O`: the IC50 (in assay [1]; in assay [2]; in the assay on KB) was above 25 µg/mL in each case.
As for `C/C=C1\CN2CC[C@@]3(C(=O)Nc4ccccc43)[C@@H]2C[C@H]1C[C@@H]1NCCc2c1[nH]c1ccccc21`, the results for the IC50 (in assay [1]; in assay [2]; with KB) were 8.4 µg/mL, above 25 µg/mL and 20 µg/mL (≈ 44.2 µM), respectively.
In the same order, the values of `CC[C@H]1CN(C)[C@H]2Cc3c([nH]c4ccccc34)C(=O)C[C@H]1[C@@H]2C(=O)OC` are above 25 µg/mL, above 25 µg/mL and above 25 µg/mL.
Turning to `C/C=C1/CN(C)[C@H]2Cc3c([nH]c4ccccc34)C(=O)C[C@H]1[C@H]2C(=O)OC`, the IC50 was determined as 13.5 µg/mL in assay [1], 22 µg/mL (≈ 62.4 µM) in assay [2] and 5.6 µg/mL (≈ 15.9 µM) in the assay with KB.
The corresponding values for `COC(=O)[C@H]1[C@@H]2CC(=O)c3[nH]c4ccccc4c3C[C@@H]1N(C)C=C2C=O` are above 25 µg/mL, above 25 µg/mL and above 25 µg/mL.
On to `COC(=O)[C@@H]1[C@@H]2CC(=O)c3[nH]c4ccccc4c3C[C@@H]1N(C)C=C2C=O`, for which the values for the IC50 (in assay [1]; in assay [2]; in the assay on KB) were above 25 µg/mL, above 25 µg/mL and 5.1 µg/mL (≈ 14.5 µM), respectively.
With `CC[C@@H]1CN(C)[C@H]2Cc3c([nH]c4ccccc34)C(=O)C[C@@H]1[C@H]2C(=O)OC` [TABERNAEMONTANINE], the IC50 (in assay [1]; in assay [2]; in the assay on KB) was above 25 µg/mL in each case.
Regarding `CC[C@]1(O)C[C@H]2CN(CCc3c([nH]c4ccccc34)[C@@](C(=O)OC)(c3cc4c(cc3OC)N(C=O)[C@H]3[C@@](O)(C(=O)OC)[C@H](OC(C)=O)[C@]5(CC)C=CCN6CC[C@]43[C@@H]65)C2)C1` [VINCRISTINE], the results for the IC50 (in assay [2]; with KB) were 5.4 µg/mL (≈ 6.55 µM) and 0.007 µg/mL (≈ 0.00849 µM), respectively.
On to `C/C=C1/CN(C)[C@H]2Cc3c([nH]c4ccccc34)C(=O)C[C@H]1[C@@H]2C(=O)OC` [VOBASINE], for which the half-maximal inhibitory concentration (IC50) (in assay [1]; in assay [2]; in the assay on KB) was above 25 µg/mL throughout.
